We go through ten molecules from PubChem BioAssay AID2060483 (Molecular Pharmacology Branch, DTP, NCI, 2025).

This assay relates to K24384-001-R-PDC complex spheroids, viability. The assay is described as follows: Anticancer human tumor K24384-001-R-PDC patient-derived pancreatic adenocarcinoma cell line growth inhibition [GQUAD]. Particulars: for viability, T/C: stronger effect = lower value. An excerpt:
DNA G-quadruplex Stabilizer Agents in Combinations in Complex Spheroids
A high-throughput screen of multi-cell type tumor spheroids was designed to identify active combinations of DNA G-quadruplex stabilizer agents and targeted small molecules. Complex spheroids include a stromal component modeled by human endothelial cells (HUVEC) and fibroblasts modeled by human mesenchymal stem cells (MSCs). The concentration ranges selected for each drug and investigational agent were based upon clinically achievable concentrations if the clinical Cmax of the agent was known.
Compounds. The drugs and investigational agents: pidnarulex (CX-5461; NSC782164), APTO-253 (NSC789042), BRACO-19 (NSC847499), peposertib (NSC802822), ceralasertib (NSC780249), elimusertib (NSC800525), camonsertib (NSC841442), AZD-1390 (NSC803789), olaparib (NSC753686), talazoparib (NSC767125), ART-558 (NSC835418), sotorasib (NSC818433), MRTX-1133 (NSC836407), SN-38 (NSC673596), topotecan (NSC609699), etoposide (NSC141540), doxorubicin (NSC123127), gemcitabine (NSC613327), 5-fluorouracil (NSC19893), paclitaxel (NSC125973), vemurafenib (NSC761431), panobinostat (NSC761190), R-306465 (JNJ-16241199; NSC773264), adavosertib (NSC754352), TP-3654 (NSC805149), carboplatin (NSC241240), KSQ-4279 (NSC840948), and staurosporine (NSC755774) were obtained from the National Cancer Institute (NCI) Developmental Therapeutics Program Chemical Repository (34). The FDA-approved anticancer drug set is available from the NCI Developmental Therapeutics Program. […] The stock solutions were prepared in dimethyl sulfoxide (DMSO, Sigma-Aldrich, St. Louis, MO, cat. D2650) at 800-fold the tested concentration and stored at -70 degrees C prior to their use. All drugs and investigational agents were tested over a range starting from a high concentration at or near the clinical Cmax and decreasing in half-log increments. If the clinical Cmax for an agent had not been determined, the highest concentration tested was 10 microM.
2.3 Cell Culture. All cells were maintained in an incubator at 37 degrees C and 5% CO2 with 95% humidity. The PDC lines were cultured according to standard operating procedures established by the NCI PDMR. All PDCs were thawed and cultured in Matrigel-coated flasks prepared with a working solution of 1X Ham's F-12 nutrient mix, without supplementation (Invitrogen, cat. 11765054), 100 U/mL penicillin-streptomycin (Invitrogen, cat. 15140122), and 2.5% Matrigel (Corning Inc., cat. 354248) for the first three passages. The 857933-349-R-J2-PDC line was cultured in 6C/Colon 1B media, which includes advanced DMEM/F-12 (Thermo Fisher Scientific, cat. 12634028), 10 mM HEPES (Thermo Fisher Scientific, cat. 15630080), 1X GlutaMAX supplement (Thermo Fisher Scientific, cat. 35050061), 0.1 mg/mL primocin (InvivoGen, cat. ant-pm-2), 10% defined fetal bovine serum, heat inactivated (HyClone Laboratories Inc., cat. SH30070.03HI), 50% L-WRN conditioned media (ATCC, cat. CRL-3276), 1.25 mM N-Acetyl-L-cysteine (Sigma-Aldrich, cat. A9165), 10 mM nicotinamide (Sigma-Aldrich, cat. N0636), 1X B-27 supplement (Thermo Fisher Scientific, cat. 17504044), 1X N-2 supplement (Thermo Fisher Scientific, cat. 17502048), 10 microM Y-27632 dihydrochloride (Tocris Bioscience, cat. 1254), and 50 ng/mL human EGF recombinant protein (Thermo Fisher Scientific, cat. PHG0311). The 485176-168-R4-J1-PDC line was cultured in Panc media, which includes all 6C/Colon 1B media components plus 100 ng/mL human FGF-10 (Thermo Fisher Scientific, cat. 100-26), 500 nM SB-431542 (Selleckchem, cat. S1067), and gastrin (Tocris, cat. 3006).
[…]

pIC50: −log10 of the molar value. Several values for one entry are separate records, joined by “and”; a condition that tells them apart may be missing. Equal values may be shown once.
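Also: spheroids exposed to compounds for seven days.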

Consider `C#Cc1c(F)ccc2cc(O)cc(-c3ncc4c(N5CC6CCC(C5)N6)nc(OCC56CCCN5CC(F)C6)nc4c3F)c12` (configuration not stated), for which the viability, T/C (compound 0.0316 µM) was 107% and 94.9% and 91.9%; the viability, T/C (compound 0.1 µM) is 99.2% and 99.3% and 86.2%; the viability, T/C (compound 0.316 µM) was 98.2% and 95.7% and 83.9%; the viability, T/C (compound 1 µM) was 74.1% and 52.7% and 53%; the viability, T/C (compound 3.16 µM) is 35.6% and 35.4% and 33.3%; the viability, T/C (compound 10 µM) was 19.8% and 14.8% and 18.1%. For the same molecule, under “curve of compound”, the pIC50 is 5.69 and 5.87 and 5.88.
As to `C=CC(=O)N1CCN(c2nc(=O)n(-c3c(C)ccnc3C(C)C)c3nc(-c4c(O)cccc4F)c(F)cc23)C(C)C1` (configuration not stated), the viability, T/C by setting is: (compound 0.0316 µM) 110% and 115% and 96.6%; (compound 0.1 µM) 95.3% and 80% and 113%; (compound 0.316 µM) 105% and 99.4% and 119%; (compound 1 µM) 91.2% and 103% and 99.1%; (compound 3.16 µM) 104% and 116% and 106%; (compound 10 µM) 93% and 80.7% and 94.2%. Also, the pIC50 (curve of compound) is under 5.00.
With `CC(=O)O[C@H]1C(=O)[C@@]2(C)[C@H]([C@H](OC(=O)c3ccccc3)[C@]3(O)C[C@H](OC(=O)[C@H](O)[C@@H](NC(=O)c4ccccc4)c4ccccc4)C(C)=C1C3(C)C)[C@]1(OC(C)=O)CO[C@@H]1C[C@@H]2O`, the viability, T/C is 33.8% and 31.3% and 53.9% (compound 0.0316 µM); 25.3% and 22% and 20.2% (compound 0.1 µM); 23.4% and 18.5% and 29.6% (compound 0.316 µM); 20.5% and 21.1% and 28.1% (compound 1 µM); 25.6% and 20.9% and 26.2% (compound 3.16 µM); 28.5% and 28.9% and 37.3% (compound 10 µM). For the setting “curve of compound”, the negative-log IC50 (pIC50) is over 7.50.
Regarding `CC(C)n1c(=O)n(C)c2cnc3cc(F)c(-c4ccc(OCCCN5CCCCC5)nc4)cc3c21`, the viability, T/C is 108% and 84.2% and 93.7% (compound 0.0316 µM); 89% and 95.3% and 95.1% (compound 0.1 µM); 116% and 97.8% and 99.7% (compound 0.316 µM); 120% and 88% and 123% (compound 1 µM); 123% and 107% and 119% (compound 3.16 µM); 92.1% and 80.3% and 90.2% (compound 10 µM). Besides, the pIC50 (curve of compound) is under 5.00.
On to `CC1COCCN1c1cc(-c2ccnn2C)c2ccnc(-c3ccn[nH]3)c2n1` (configuration not stated), for which the viability, T/C by setting is: (compound 0.0316 µM) 85.2% and 75.3% and 76.9%; (compound 0.1 µM) 49.8% and 45% and 54.3%; (compound 0.316 µM) 41.3% and 28.3% and 40.7%; (compound 1 µM) 37.1% and 26.5% and 29.7%; (compound 3.16 µM) 38.4% and 30.4% and 33.3%; (compound 10 µM) 31.8% and 32.7% and 33.8%. Where the note is “curve of compound”, the negative logarithm of the IC50 (pIC50) is 6.96 and 7.08 and 6.85.
Turning to `CC1COCCN1c1cc(C2(O)CC3CCC(C2)O3)c2cnn(-c3ccn[nH]3)c2n1` (configuration not stated), the viability, T/C (compound 0.0316 µM) was 80.5% and 78% and 64.4%; the viability, T/C (compound 0.1 µM) is 43.7% and 56.4% and 38.6%; the viability, T/C (compound 0.316 µM) was 40% and 45.8% and 33.4%; the viability, T/C (compound 1 µM) was 29.1% and 26.3% and 24.6%; the viability, T/C (compound 3.16 µM) is 24.8% and 25.7% and 32.5%; the viability, T/C (compound 10 µM) is 13.2% and 19% and 15%. The pIC50 (curve of compound) was 6.97 and 6.75 and 7.19.
With `CC1COCCN1c1cc(C2(S(C)(=N)=O)CC2)nc(-c2ccnc3[nH]ccc23)n1` (configuration not stated), the viability, T/C runs as follows: (compound 0.0316 µM) 92.8% and 89.6% and 108%; (compound 0.1 µM) 96% and 93.6% and 99.5%; (compound 0.316 µM) 107% and 102% and 114%; (compound 1 µM) 65.9% and 56.5% and 74.8%; (compound 3.16 µM) 34.9% and 32.8% and 40%; (compound 10 µM) 33% (2×) and 26.7%. Under “curve of compound”, the pIC50 was 5.75 and 5.88 and 5.68.
Consider `CC[C@@]1(O)C(=O)OCc2c1cc1n(c2=O)Cc2cc3c(CN(C)C)c(O)ccc3nc2-1`, for which the viability, T/C by setting is: (compound 0.000999 µM) 103% and 111% and 108%; (compound 0.00316 µM) 83.2% and 92.2% and 77.5%; (compound 0.00999 µM) 97.7% and 100% and 114%; (compound 0.0316 µM) 82.8% and 82.3% and 80.1%; (compound 0.0999 µM) 66.6% and 50.2% and 63.6%; (compound 0.316 µM) 53% and 58.5% and 51.3%. Moreover, the pIC50 (curve of compound) is under 6.50.
Take `CCc1c2c(nc3ccc(O)cc13)-c1cc3c(c(=O)n1C2)COC(=O)[C@]3(O)CC`: the viability, T/C runs as follows: (compound 0.000999 µM) 99.6% and 68.6% and 79.3%; (compound 0.00316 µM) 52.9% and 58% and 61.9%; (compound 0.00999 µM) 65.9% and 39.2% and 63.5%; (compound 0.0316 µM) 43.4% and 33% and 29.1%; (compound 0.0999 µM) 27.3% and 38% and 31.1%; (compound 0.316 µM) 24.3% (2×) and 23.9%. The negative logarithm of the IC50 (pIC50) (curve of compound) is 7.89 and 8.31 and 7.80.
Consider `CN(C)c1ccc(Nc2c3ccc(NC(=O)CCN4CCCC4)cc3nc3cc(NC(=O)CCN4CCCC4)ccc23)cc1`, for which the viability, T/C reads like this: (compound 0.0316 µM) 101% [middle of 12 runs]; (compound 0.1 µM) 100% [middle of 12 runs]; (compound 0.316 µM) 101% [middle of 12 runs]. Moreover, the pIC50 (compound alone, run of 02/26/2024) is under 5.00.

Broadly, the viability, T/C is the ratio of treated to control. The pIC50 is −log10 of the IC50, conventionally taken in molar units.
